These results are taken from paper PMC11214487, “YZL-51N functions as a selective inhibitor of SIRT7 by NAD^+ competition to impede DNA damage repair” (iScience, 2024).

As a reminder, the inhibition is how much of the control response was suppressed. By IC50 is commonly meant the concentration at which inhibition is half-maximal. As usually defined, the Kd is the free concentration of one partner at which half of the binding sites on the other are occupied at equilibrium, for simple one-to-one binding.

In experiment [1] the target is T1, SIRT7 (Homo sapiens, UniProt Q9NRC8).
T1 construct: His-tagged full length SIRT7 protein expression from BL21 bacterial cells; His; made in house; host or cells: E. coli BL21
T1 sequence (Q9NRC8 1-400): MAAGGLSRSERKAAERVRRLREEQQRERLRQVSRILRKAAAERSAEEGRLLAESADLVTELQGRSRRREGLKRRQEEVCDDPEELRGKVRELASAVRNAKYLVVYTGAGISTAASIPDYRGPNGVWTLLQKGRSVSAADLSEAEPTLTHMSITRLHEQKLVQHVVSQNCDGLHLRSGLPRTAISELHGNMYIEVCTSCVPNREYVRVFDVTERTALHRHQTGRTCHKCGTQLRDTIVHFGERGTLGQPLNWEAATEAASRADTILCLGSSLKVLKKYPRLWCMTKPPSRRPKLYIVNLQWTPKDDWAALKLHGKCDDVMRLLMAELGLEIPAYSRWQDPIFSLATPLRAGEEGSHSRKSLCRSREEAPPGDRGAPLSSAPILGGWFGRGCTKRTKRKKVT
The experiment is described as follows: Fluor de Lys (FDL) SIRT7 deacetylase assay. The format is biochemical. An excerpt: To assess SIRT7 deacetylase activity using Fluor de Lys (FDL) assays, the peptide […]∗QLAGGK was synthesized and characterized as a substrate using fluorophore 7-methoxycoumarin-4-acetic acid (∗, MCA) (Figures 1A, S1A, and S1B). In the presence of both SIRT7 and NAD^+, a luminescence response was detected in the linear range (y = 31.88x + 2396, R^2 = 0.9742) (Figure 1B). We screened our preserved library of 242 natural products to find potential SIRT7 inhibitors.
For in vitro analysis of SIRT7 deacetylation, the reaction system contained 10 μg His-SIRT7, 0.5 mM NAD^+, 10 μM […](MCA)QLAGGK (synthesized by QYAOBIO; details in the supplementary files), 50 μM potential compound or 3 mM NAM, and assay buffer (10 mM Tris-HCl pH 8.0, 4 mM MgCl2, 0.2 mM DTT and 10% Glycerol). The deacetylation reactions were incubated at 37°C for 90 min. The fluorescence intensity was measured with a microplate reader (Synergy H4 Hybrid Reader, Biotek) at an excitation wavelength of 260 nm and detected at an emission spectrum of 300–600 nm. The IC50 values were calculated at 450 nm emission by GraphPad Prism 8.

The target in experiment [2] is T1, SIRT7. The experiment is described as follows: Bio-layer interferometry (BLI) binding assay. The note with it: 0-40 μM, PBST pH 7.4. The procedure: The binding affinity of SIRT1/2/6/7 with YZL-51N was determined using Super Streptavidin (SSA) biosensors in an Octet Red 96 instrument (ForteBio Inc., Menlo Park, CA, United States). Briefly, the biotinylated SIRT1/2/6/7 proteins were immobilized onto the surface of SSA biosensors. Increasing concentrations of YZL-51N were allowed to flow through the chips at room temperature in PBST buffer (pH 7.4). Assays were performed in black 96-well flat bottom plates on a shaker at 1000 r/min. The association and dissociation of YZL-51N with SIRT1/2/6/7 were measured for 300 s. Kinetic parameters and affinities were calculated from a non-linear global fit of the data between YZL-51N and SIRT1/2/6/7 using Octet Data Analysis software version 7.0 (Fortebio).
Background: Biolayer interferometry detects binding as a change in optical thickness at a sensor tip.

In a further experiment the test system is SIRT1/2/3/5/6. The experiment is described as follows: Sirtuin deacetylation assay (fluorometric ELISA kit), other sirtuins. The note with it: different concentrations. The format is biochemical, human. An excerpt: To determine the selectivity of YZL-51N, we assessed its inhibitory activity against recombinant human sirtuins expressed in E. coli through deacetylation assays in vitro (Figures 2A and 2B). […] We next validated the direct interaction between YZL-51N and SIRT1/2/6/7 using bio-layer interferometry (BLI) assays to compare their binding affinities. […] To gain insights into the ability of YZL-51N to affect sirtuin thermostability, we conducted protein thermal shift assays. At a concentration of 10 μM, YZL-51N caused shifts in the melting curves for SIRT7, SIRT6 and SIRT1 of 2.86°C, 1.0°C and 0.45°C (Figures S7A–S7C). In addition, we observed a dose-dependent increase in the ΔTm for SIRT7 following YZL-51N treatment (Figures 2F and 2G). Taken together, these findings confirm that YZL-51N is a selective inhibitor of SIRT7.
Deacetylase activity of 10 μg purified SIRT proteins was assessed using the Sirtuin Activity Assay Kit (BioVision, Cat#K324-100, USA) according to the manufacturer’s instructions. The fluorescence intensity (Ex/Em = 400/505 nm) was measured using a microplate reader (Synergy H4 Hybrid Reader, Biotek) in the end-point mode.
Background: An ELISA detects its analyte on a solid surface through an enzyme-linked reagent.

The target in experiment [3] is T1, SIRT7. The experiment is described as follows: Protein thermal shift assay. The format is binding. The note with it: 10 μM. The procedure: (§1) The mixture containing SIRT1, SIRT6 or SIRT7 proteins, SYPRO Orange, compounds and buffer (100 mM Tris-HCl, 40 mM NaCl, 10 mM MgCl2, pH=7.4) were added into 0.2 mL PCR tubes for a total volume of 20 μL and placed in an ABI ViiA 7 Real-time PCR System. The temperature ranging from 35.0 to 75.0°C was increased at a rate of 0.5°C/s and the fluorescence intensity was monitored in the ROX channel.

The target in a further experiment is SIRT6 (Homo sapiens, UniProt Q8N6T7). The experiment is described as follows: Protein thermal shift assay. The format is binding. The note with it: 10 μM. The procedure:
as §1

The target in another experiment is T2, SIRT1 (Homo sapiens, UniProt Q96EB6).
T2 construct: GST-SIRT1-193-741; GST; purchased Active Motif 7846-50; host or cells: E. coli
T2 sequence (Q96EB6 193-741): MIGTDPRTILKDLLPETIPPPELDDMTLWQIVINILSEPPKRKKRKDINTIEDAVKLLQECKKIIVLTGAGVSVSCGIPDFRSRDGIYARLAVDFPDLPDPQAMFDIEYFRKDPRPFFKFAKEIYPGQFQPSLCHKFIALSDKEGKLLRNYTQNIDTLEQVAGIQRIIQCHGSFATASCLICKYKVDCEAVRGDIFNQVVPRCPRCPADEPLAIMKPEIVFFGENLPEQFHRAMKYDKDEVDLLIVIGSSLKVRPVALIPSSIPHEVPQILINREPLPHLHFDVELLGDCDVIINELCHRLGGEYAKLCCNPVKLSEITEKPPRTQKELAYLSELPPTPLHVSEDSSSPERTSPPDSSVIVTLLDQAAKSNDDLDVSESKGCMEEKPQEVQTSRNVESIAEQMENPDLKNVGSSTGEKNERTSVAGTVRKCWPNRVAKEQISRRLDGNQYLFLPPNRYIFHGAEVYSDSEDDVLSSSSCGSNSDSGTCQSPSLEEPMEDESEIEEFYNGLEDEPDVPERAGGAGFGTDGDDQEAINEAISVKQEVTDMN
The experiment is described as follows: Protein thermal shift assay. The experiment is classed as binding. The note with it: 10 μM. How it is done: as §1

Chain of SIRT6 (Q8N6T7 whole entry): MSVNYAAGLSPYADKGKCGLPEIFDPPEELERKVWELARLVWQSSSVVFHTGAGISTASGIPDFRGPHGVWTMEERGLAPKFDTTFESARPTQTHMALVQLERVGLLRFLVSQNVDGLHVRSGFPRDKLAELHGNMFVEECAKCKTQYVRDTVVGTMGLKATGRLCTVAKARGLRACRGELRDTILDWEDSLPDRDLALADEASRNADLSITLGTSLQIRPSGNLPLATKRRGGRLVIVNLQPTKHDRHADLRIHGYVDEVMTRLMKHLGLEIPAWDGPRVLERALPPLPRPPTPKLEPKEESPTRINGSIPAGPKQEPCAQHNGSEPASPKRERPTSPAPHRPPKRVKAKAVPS

As for `COC(=O)/C(=C\C(=O)c1ccc(O)c(O)c1)c1ccc(O)c(O)c1` [YZL-51N], the inhibition at 50 µM at SIRT7 [1] (50 μM compound, 37°C, 90 min) amounted to 71.1%. Moreover, the IC50 on SIRT7 [1] (0.5 mM NAD+, 10 μM peptide, read-out: FDL assay SIRT7 inhibition IC50) came out at 12.7 µM. In addition, at SIRT7 [2], binding was characterised by a dissociation constant (Kd) of 3.3 µM. In addition, the “Inhibition of deacetylase activities of other sirtuins” value in the experiment with SIRT1/2/3/5/6 is listed as “did not inhibit”. Besides, the “Shift in the melting curve” value at SIRT7 [3] came to 2.86 °C; on SIRT6, 1.0 °C; at SIRT1, 0.45 °C.
